Measured values: US6511974B1, “Tricyclic vasopressin agonists” (Wyeth, priority 1997, dated 2003)

Assays:
Vasopressin V2 = biological target: T1, Vasopressin V2 (Rattus norvegicus, UniProt Q00788); assay: Vasopressin V2 agonist effects in normal conscious water-loaded rats; format: in vivo; conditions: Sprague-Dawley (CD) rats, urine collected four hours; for Urine Volume (% decrease): 10 mg per kg oral, percent decrease in urine volume vs. control; for Osmolality (% Increase): 10 mg/kg oral, change in osmolality as percent of control
T1 construct: vasopressin V2 receptors of the nephrons of the kidney; tissue Charles River Laboratories, Inc; host or cells: whole living animal (kidney collecting ducts)
Text: Vasopressin V2 Agonist Effects of Test Compounds in Normal Conscious Water-Loaded Rats:
Male or female normotensive Sprague-Dawley rats (Charles River Laboratories, Inc., Kingston, N.Y.) of 350-500 g body weight were supplied with standard rodent diet (Purina Rodent Lab. Chow 5001) and water ad libitum. On the day of test, rats were placed individually into metabolic cages equipped with devices to separate the feces from the urine and containers for collection of urine. Test compound or reference agent was given at an oral dose of 10 mg/kg in a volume of 10 ml/kg. The vehicle used was 20% dimethylsulfoxide (DMSO) in 2.5% preboiled corn starch. Thirty minutes after dosing the test compound, rats were gavaged with water at 30 ml/kg into the stomach using a feeding needle. During the test, rats were not provided with water or food. Urine was collected for four hours after dosing of the test compound. At the end of four hours, urine volume was measured. Urinary osmolality was determined using a Fiske One-Ten Osmometer (Fiske Associates, Norwood, Mass., 02062) or an Advanced CRYOMATIC Osmometer, Model 3C2 (Advanced Instruments, Norwood, Mass.). Determinations of Na^+, K^+ and Cl^− ion were carried out using ion specific electrodes in a Beckman SYNCHRON EL-ISE Electrolyte System analyzer. The urinary osmolality should increase proportionally. In the screening test, two rats were used for each compound. If the difference in the urine volume of the two rats was greater than 50%, a third rat was used.

T1 sequence (Q00788 whole entry): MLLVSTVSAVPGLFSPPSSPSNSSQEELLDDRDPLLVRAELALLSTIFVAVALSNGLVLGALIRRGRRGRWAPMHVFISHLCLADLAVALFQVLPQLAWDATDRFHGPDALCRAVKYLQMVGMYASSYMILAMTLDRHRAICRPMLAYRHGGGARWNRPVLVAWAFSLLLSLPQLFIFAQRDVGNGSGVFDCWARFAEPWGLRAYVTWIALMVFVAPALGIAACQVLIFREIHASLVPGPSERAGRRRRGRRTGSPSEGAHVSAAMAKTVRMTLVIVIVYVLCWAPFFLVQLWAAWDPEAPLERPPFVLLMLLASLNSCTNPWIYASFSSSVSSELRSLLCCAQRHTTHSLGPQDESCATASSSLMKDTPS

Urine Volume (% decrease) (Vasopressin V2) | Osmolality (% Increase) (Vasopressin V2) | melting point | Compound
70% | 325% | – | Cc1ccn(-c2ccc(C(=O)N3Cc4cccn4Cc4ccccc43)c(Cl)c2)n1 [Example 9A]
56% | 291% | – | Cn1ncnc1-c1ccc(C(=O)N2Cc3cccn3Cc3ccccc32)c(Cl)c1 [Example 84, [2-Chloro-4-(2-methyl-2H-[1,2,4]triazol-3-yl)-phenyl]-(5H,11H-pyrrolo [2,1-c][1,4]benzodiazepin-10)-methanone]
– | – | 179 to 181 °C | Cc1cnn(-c2ccc(C(=O)N3C=C4CC=CN4Cc4ccccc43)cc2)c1 [Example 60, [4-(4-Methyl-pyrazol-1-yl)-phenyl]-(5H,1H-pyrrolo[2,1-c][1,4]-benzodiazepin-10-yl)-methanone]
88% | 663% | – | C#Cc1ccc(C(=O)N2Cc3cccn3Cc3ccccc32)c(Cl)c1 [Example 123, [2-Chloro-4-ethynyl-phenyl](5H-11H-pyrrolo [1,2-c][1,4]benzodiazepin-10-yl)methanone.]
